According to EP0510719A1, “Benzimidazole derivatives substituted with a radical group and their use for inhibiting gastric acid secretion” (priority 1986, dated 1988):
Where a name gives a salt, the structure may show the parent alone. Read-outs that look alike come from different tables or passages of the source. Values belong to the compound of their own block, whether it stands above or below them.

Assays:
gastric acid secretion = test: Inhibiting effect in vivo on gastric acid secretion in conscious dog (histamine-stimulated, chronic gastric fistula dog); details: inhibition during the 2nd hour after dose
Description: Chronic gastric fistula dog were used. These dogs have been surgically provided with a gastric cannula in the stomach and a duodenal fistula, used for direct intraduodenal administration of test compounds. Following a 4 weeks' recovery period after surgery, tests were performed once a week on each dog. Food and water were withdrawn 18 hours before each test.
Gastric acid secretion was induced by a continuous 4 h infusion of histamine at individual doses (400-600 nmol/kg^.h,iv) resulting in approximately 90% of maximal secretion of gastric acid. After 1 h of histamine stimulation, test compounds or vehicle were administered, either iv or im (vehicle = 0.5% saline) or id (vehicle = 0.5% Methocel®, 90 HG 15000, Dow Chem Corp.) via a catheter through the duodenal fistula. The gastric juice was collected by free flow from the gastric cannula in consecutive 30 min. samples during the duration of the histamine infusion. The samples were titrated to pH 7.0 with 0.1 M or 1.0 M NaOH using an automatic titrator and the acid output was calculated. The acid output during the periods after administration of test compound or vehicle was expressed as the fraction of the output during the period preceding these administrations, and the per cent inhibition of acid secretion was calculated by comparing in each dog the fractional responses induced by the test compound to the corresponding vehicle-induced fractional responses.
The test results given in Table 5 below represent inhibition during the 2nd hour after dose.

Solubility in water = format: physicochemical
Description: By comparison, the sodium salt of omeprazole, 5-methoxy-2-[[(4-methoxy 3-5-dimethyl-pyridinyl)methyl] sulfinyl]-1-H-benzimidazole, has a solubility of 0.4 mg per ml at pH 9, a pH considered suitable for i.v. administration.

[1] = Chemical stability in aqueous buffer solution at different pH, followed kinetically; format: physicochemical
[2] = pH 5, 37°C, aqueous buffer solution, low concentration, read-out: t 1/2 (hours) pH 5 (converted)
[3] = pH 7.3, 37°C, aqueous buffer solution, low concentration, read-out: t 1/2 (hours) pH 7.3 (converted)

Structure (SMILES): COc1c(C)cnc(C[S+]([O-])c2nc3ccccc3n2COC(=O)CCC(=O)N2CCN(C)CC2)c1C (stereo not drawn) [Example 3]
Inhibition of acid secretion (%) (gastric acid secretion; 0,3 μmol/kg iv): 72 (1) %
Inhibition of acid secretion (%) (gastric acid secretion; 1 μmol/kg iv): 98 (1) %
Inhibition of acid secretion (%) (gastric acid secretion; 2 μmol/kg id): 100 (1) %
solubility (Solubility in water; water): > 60 mg/mL
half-life [1, 2]: 112 h
half-life [1, 3]: 32 h

Structure (SMILES): CCOP(=O)(O)OCn1c([S+]([O-])Cc2ncc(C)c(OC)c2C)nc2ccc(OC)cc21 (stereo not drawn) [Example 33]
Inhibition of acid secretion (%) (gastric acid secretion; 1 μmol/kg id): 97 (1) %
Inhibition of acid secretion (%) (gastric acid secretion; 4 μmol/kg id): 98 (1) %
t 1/2 (hours) pH 5 ([1]; pH 5, 37°C, aqueous buffer solution, low concentration): No decomp. after 30 h

Structure (SMILES): COc1ccc2[nH]c([S+]([O-])Cc3ncc(C)c(OC)c3C)nc2c1 (stereo not drawn) [Omeprazole-Na^⊕]
half-life ([1]; pH 2, 37°C, aqueous buffer solution, low concentration, read-out: t 1/2 (hours) pH 2 (converted)): 0.07 h
half-life [1, 2]: 0.04 h
half-life [1, 3]: 20 h

Structure (SMILES): COc1ccc2[nH]c([S+]([O-])Cc3ncc(C)c(OC)c3C)nc2c1 (stereo not drawn) [omeprazole, 5-methoxy-2-[[(4-methoxy 3-5-dimethyl-pyridinyl)methyl]sulfinyl]-1-H-benzimidazole, reference compound]
solubility (Solubility in water; at pH 9, a pH considered suitable for i.v. administration, sodium salt, read-out: solubility): 0.4 mg/mL

Further lines, with some results ahead:

solubility (Solubility in water; water): > 60 mg/mL
degraded at 600 h ([1]; aqueous buffer, after 25 days at 22° at the concentration 50 mg/ml, footnote to the pH 9.5 value, read-out: decomposition): 12%
half-life [1, 3]: 74 h
half-life ([1]; pH 9.5, 37°C, aqueous buffer solution, low concentration, read-out: t 1/2 (hours) pH 9.5): > 600 h
Structure (SMILES): COc1ccc2nc([S+]([O-])Cc3ncc(C)c(OC)c3C)n(COP(=O)(O)O)c2c1 (stereo not drawn) [Example 29]
Inhibition of acid secretion (%) (gastric acid secretion; 0,3 μmol/kg iv): 45 (1) %
Inhibition of acid secretion (%) (gastric acid secretion; 0,5 μmol/kg iv): 60 (1) %
Inhibition of acid secretion (%) (gastric acid secretion; 1 μmol/kg im): 90 (1) %
Inhibition of acid secretion (%) (gastric acid secretion; 1 μmol/kg iv): 80-85 (2) %

half-life [1, 3]: 51 h
Structure (SMILES): COc1ccc2c(c1)nc([S+]([O-])Cc1ncc(C)c(OC)c1C)n2COP(=O)(O)O (stereo not drawn) [Example 32, phosphoric acid, [5-methoxy-[2[[(4-methoxy-3,5-dimethyl-2-pyridinyl)methyl]sulfinyl]-1-H-benzimidazole-1-yl]]methyl ester, disodium salt]
Inhibition of acid secretion (%) (gastric acid secretion; 0,3 μmol/kg iv): 55 (1) %
Inhibition of acid secretion (%) (gastric acid secretion; 0,6 μmol/kg iv): 53 (1) %

half-life ([1]; pH 3, 37°C, aqueous buffer solution, low concentration, read-out: t 1/2 (hours) pH 3 (converted)): 80 h
half-life [1, 2]: 100 h
half-life [1, 3]: 40 h
Structure (SMILES): COc1ccc2c(c1)nc([S+]([O-])Cc1ncc(C)c(OC)c1C)n2COC(=O)CCC(=O)N1CCN(C)CC1 (stereo not drawn) [Example 34]
